Read-outs that look alike come from different tables or passages of the source.

Data on 5 molecules can be found in patent US7648711B2, “Dimethicone-containing sustained release injection formulation” (priority 2003, dated 2010).

A short description of the data set: Solubility of therapeutic drugs in dimethicone. In kind it is physicochemical. An excerpt: Thus, from the view point of bio-compatibility, dimethicone is suitable to be used as medium to prepare formulation for subcutaneous injection. […] Therefore, this will not pose any stability problem when using silicone as medium to prepare suspensions comprising the aforesaid drugs, which is one of the important factors usually affecting the sustained action of a long-lasting formulation. […] When hydrogenated castor oil used within the proper range (0.2% to 0.5%), the resulting liquid suspension is better in terms of stability, fluidibility, injectability and long-lasting releasing effect than the injection formulation prepared using water, vegetable oil or other organic liquid as the suspension medium. Hydrogenated castor oil functions as a suspending agent and enhances the effect of sustained releasing. In addition, when the formulation of the present invention is prepared by the micro powder crystallizing method, the presence of hydrogenated castor oil suppresses the growth of the crystal nucleus of active ingredients, whereby producing micro powder of active ingredients with a particle size of 20 micrometers or smaller. (4) By mixing the active ingredients with hydrogenated castor oil or with the-combination of hydrogenated castor oil and ethylcellulose to produce solid dispersion micro powder with particle size smaller than 300 micrometers, then dispersing the micro powder in silicone oil and grinding with a colloid mill or a ball mill, a long lasting release formulation containing solid dispersion of various particle sizes (from 10 micrometer to 150 micrometers) can be produced. Further, the sustained releasing effect of the formulation may be modified by adjusting the particle size of the solid dispersion and the proportion of hydrogenated castor oil relative to the active ingredients. For instance, sustained release formulations with various durations of effectiveness may be prepared as follows: mixing avermectins with hydrogenated castor oil to produce two solid dispersions with the avermectins to hydrogenated castor oil equal to 1:2 and 2:1, respectively, then mixing the two solid dispersions at a given ratio and dispersing the mixture in silicone oil, and producing the solid dispersion in the system with the particle size varying between 85 micrometers to 120 micrometers by controlling the extent of grinding. The formulation can provide an effective sustained releasing period up to 140 days following a single administration. Furthermore, the injection prepared by the above method has better injectability, stability and biocompatibility than water or vegetable oil based sustained release formulations for solid dispersion micro powder of avermectins/hydrogenated castor oil. Specifically, the formulation using water as medium has three disadvantages. First, it has difficulty to maintain an effective sustained releasing for more than 80 days. Second, it has poor injectability and, without adding more water soluble suspension assisting agents, solid suspension phase may “separate” from the water phase, causing injection failure due to blocking of the syringe needle. Third, it results in tissue lumps around the injection site. Other organic liquid based long-lasting formulations have similar problems.

In the case of `CO/N=C(\C(=O)N[C@@H]1C(=O)N2C(C(=O)O)=C(CSC(=O)c3ccco3)CS[C@H]12)c1csc(N)n1` [ceftiofur], the Solubility in dimethicone result is “less than 0.01%”. For the molecule `O=C(NC(=O)c1c(F)cccc1F)Nc1ccc(Cl)cc1` [diflubenzuron], for the setting “dimethicone”, the Solubility in dimethicone entry is reported as “less than 0.01%”. Regarding `O=[N+]([O-])NC1=NCCN1Cc1ccc(Cl)nc1` [imidacloprid], the Solubility in dimethicone result is recorded as “less than 0.01%”. Same read-out and setting: for `CC1(C)S[C@@H]2[C@H](NC(=O)Cc3ccccc3)C(=O)N2[C@H]1C(=O)[O-].[K+]` [penicillin G potassium salt] the value was “less than 0.01%”; for `CC1(C)S[C@@H]2[C@H](NC(=O)Cc3ccccc3)C(=O)N2[C@H]1C(=O)[O-].[Na+]` [penicillin G sodium salt], “less than 0.01%”.
